From US20030152577A1, “Dye-bioconjugates for simultaneous optical diagnostic and therapeutic applications” (MALLINCKRODT INC., priority 2002, published 2003)

Tests used:
Design in all cases: species or system male Lewis rats
[1] = tested on: CA20948 (pancreatic) tumor, rich in somatostatin (SST-2) receptors; experiment: Non-invasive in vivo fluorescence imaging of CA20948 tumor bearing rat
Text: (§1) A non-invasive in vivo fluorescence imaging apparatus was employed to assess the efficacy of indocyanine green (ICG) in three different rat tumor cell lines of the inventive contrast agents developed for tumor detection in animal models. A LaserMax Inc. laser diode of nominal wavelength 780 nm and nominal power of 40 mW was used. The detector was a Princeton Instruments model RTE/CCD-1317-K/2 CCD camera with a Rodenstock 10 mm F2 lens (stock #542.032.002.20) attached. An 830 nm interference lens (CVI Laser Corp., part # F10-830-4-2) was mounted in front of the CCD input lens, such that only emitted fluorescent light from the contrast agent was imaged.
(§2) Three tumor cell lines, DSL 6/A (pancreatic), Dunning R3327-H (prostate), and CA20948 (pancreatic), which are rich in somatostatin (SST-2) receptors were induced into male Lewis rats by solid implant technique in the left flank area (Achilefu et al., Invest Radiology, 2000, pp. 479-485). Palpable masses were detected nine days post implant.
The peptide, octreotate, is known to target somatostatin (SST-2) receptors. Therefore, the cyano-octreotates conjugate, Cytate 1, was prepared as described in Example 4. The pancreatic acinar carcinoma, CA20948, was induced into male Lewis rats as described in Example 9.
Using the CCD camera apparatus, dye localization in the tumor was observed. […]

[2] = tested on: DSL 6/A (pancreatic) tumor; experiment: Non-invasive in vivo fluorescence imaging of DSL 6/A tumor in rats; conditions: 0.5 ml of 0.42 mg/ml in saline, tail vein, images at 2 and 30 minutes post administration
Text: as §1, §2

[3] = tested on: Dunning R3327-H (prostate) tumor; experiment: Non-invasive in vivo fluorescence imaging of Dunning R3327-H tumor in rats; conditions: 0.5 ml of 0.42 mg/ml in saline, tail vein, images at 2 and 30 minutes post administration
Text: as §1, §2

CC1(C)C(/C=C/C=C/C=C/C=C2\N(CCCCS(=O)(=O)O)c3ccc4ccccc4c3C2(C)C)=[N+](CCCCS(=O)(=O)[O-])c2ccc3ccccc3c21 [ICG, indocyanine green]
perfusion of the agent into the tumor ([1]; 0.5 ml of 0.42 mg/ml in saline, tail vein, images at 2 and 30 minutes post administration): only a slight and transient perfusion that was cleared after only 30 minutes post injection | non-specific localization into the tumor line ([1]; compared to the other two lines): no non-specific localization | perfusion of the agent into the tumor [2]: slow perfusion of the agent into the tumor over time | perfusion of the agent into the tumor [3]: slow perfusion of the agent into the tumor over time
